Values joined by “and” are separate entries in the source; they are usually repeats but may differ in a detail not shown here. Equal entries are not always repeated. “Also recorded” adds a separate entry of the source.

The subject of data set [1] is stomach tissues. The experiment in a line: Stomach RNA-sequencing, ENT-02 (MSI-1436) treatment and congruence with ENT-03 (Example 10). The class given is in vivo, mice. On the procedure:
Samples of stomach tissues from the mice were analysed by RNA-sequencing on an Illumina platform.
To achieve these aims, data were subject to a quality control evaluation, differential expression and functional enrichment analyses, as well as a congruence analysis.
[…] At this threshold, differentially expressed genes were identified in all contrasts.
As mentioned previously, for statistical robustness, only those with an adjusted p-value <0.05 should be considered. […]
The amount of overlap is represented in FIGS. 28A-28D. For each comparison, the value in the plot represents the number of intersecting selected genes and the color represents the Jaccard index (the intersection over the union) for the two contrasts under consideration.
Scatter plots, upset plots, venn diagrams, hypergeometric tests and Spearman rank correlation tests were employed to assess the level of overlap as shown in FIGS. 15-27.

Data set [2] can be described thus: Mouse weight after deuterated ENT-03 i.p. (FIG. 12). The class given is in vivo. The settings on record: i.p. to mice. From the text: The presence of the deuterium on the side chain likely slows the action of the 2-methylacyl-coenzyme A racemase on C-25, the subsequent action of the dehydrogenase that produces the 24,25-trans-unsaturated derivative by removing the deuterium atoms at C24 and C25, and the subsequent hydration and oxidation at the C24 bond catalyzed by the D-bifunctional protein. Instead, the metabolism of ENT-03D3 will begin with the oxidation at C24 by CYP46A1, yielding the following compound: […]

In data set [3] the test system is hAPP-J20 mice. The experiment in a line: Morris water maze, amyloid Alzheimer's model. The data set is classed as in vivo. The settings on record: 2.5 mg/kg/wk i.p. over 6 weeks, vs vehicle treated littermates. An excerpt:
(§1) The Morris water maze was used to test the effect of ENT-03 on spatial learning and memory deficits in 2 mouse models of familial Alzheimer's disease, hAPP-J20 mice that express a double mutant of the human amyloid precursor protein (Mucke et al., 2000), and PS19 mice that express the P301S mutant of the human microtubule associated protein tau (Yoshiyama et al., 2007).
(§2) hAPP-J20 mice expressing human APP bearing the Swedish and Indiana familial mutations (B6.Cg-Zbtb20Tg(PDGFB-APPSwInd)20Lms/2Mmjax, (Mucke et al., 2000)) and PS19 mice expressing the P301S mutation of human tau protein (B6;C3-Tg(Prnp-MAPT*P301S)PS19Vle/J (Yoshiyama et al., 2007)) were purchased from Jackson laboratories and maintained as colonies in the animal facility of the University of Ottawa. Heterozygous hAPP-J20 and PS19 mice were used. Genotypes were verified by PCR using genomic DNA isolated from tail or ear biopsies. […]
(§3) The Morris water maze test to analyze the ability of mice to learn and remember the location of a submerged platform in a pool containing opaque water was conducted in the Faculty of Medicine Behavior Core Laboratory at the University of Ottawa. […] On the probe day, crossings of the platform area and target quadrant were counted and swimming speed was measured using Ethovision automated video tracking software (Noldus).

The subject of data set [4] is PS19 mice. The experiment in a line: Morris water maze, tau Alzheimer's model. Particulars: 2.5 mg/kg/wk i.p. over 6 weeks, vs vehicle treated littermates. The class given is in vivo.
Description: as §1, §2, §3

The test system of data set [5] is stomach, jejunum and ileum. The experiment in a line: GI tract transcriptome (RNAseq) after oral ENT-03, young vs aged mice. The class given is in vivo, C57bl/6 male mice. On the procedure:
Young (20 week) and aged (80 week) C57bl/6 male mice were administered ENT-03 (40 mg/kg) or vehicle (water) by oral gavage daily for 2 weeks. Over this period of time clinical observations were unremarkable as were the gross and microscopic examinations of the GI tract. The transcriptomes of the stomach, jejunum and ileum were analyzed by RNAseq technology. Comparative analyses of the transcripts from untreated animals identified numerous transcripts that differed in abundance between the corresponding tissues from old and young individuals. […] Thus, within these three distinct regions of the mouse GI tract, ageing is associated with changes in the transcriptome.
Statistical analysis of RNA-sequencing data was performed using R programming language. Transcripts with less than one read count per million reads in all samples of each tissue were removed. The raw count data for the samples were then normalised using trimmed mean of M-values normalisation and transformed with voom (Law et al., 2014), resulting in log 2-transformed counts per million with associated precision weights. […] Statistical comparisons were performed using linear modelling, as implemented in the Bioconductor package limma (Ritchie et al., 2015). Significance values (p-values) were adjusted for multiple testing using Benjamini-Hochberg procedure (Benjamini et al., 1995). For each comparison (e.g. group A versus group B), a positive log 2-transformed fold change indicates up-regulation in group A relative to group B.
To investigate the overlap between contrasts, the number of overlapping differentially expressed genes (defined using adjusted p-value <0.05) between all pairwise combinations of the comparisons performed were counted. For each comparison, the Jaccard index, defined as the intersection over the union, measures the similarity between the two contrasts under consideration. The p-value was calculated using a hypergeometric test taking into account the universe size under the assumption that the contrasts and genes are independent.

Take `CC(C)[C@@H](CC[C@@H](C)[C@H]1CC[C@H]2[C@@H]3[C@H](O)C[C@H]4C[C@@H](NCCCNCCCCNCCCN)CC[C@]4(C)[C@H]3CC[C@]12C)OS(=O)(=O)O` (single isomer, unassigned) [ENT-02 (MSI-1436), trodusquemine]: the “overlap of genes downregulated in aged mice with genes up-regulated by treatment in old mice” value in data set [1] (hypergeometric P<0.0001) is on record as “overlapped significantly”. The “overlap of genes down-regulated in ageing and up-regulated in treatment with those of ENT-03” value in data set [1] (stomach, congruence analysis) was “did not overlap with those affected by ENT-03”.

As for `CC(CCC[C@@H](C)[C@H]1CCC2C3C(CC[C@@]21C)[C@@]1(C)CC[C@H](NCCCNCCCCNCCCN)C[C@@H]1C[C@H]3O)C(=O)O` (single isomer, unassigned) [ENT-03], in data set [2], the “effect on weight” value was “loss of weight”. Also, in data set [3], the “learning during the training phase (latency to find the hidden platform)” value was “improved; also recorded: decreased the latency to find the hidden platform”. In addition, the “memory on the probe day (platform area crossings, time in platform area)” value in data set [3] was “improved memory”. Also, in data set [4], the “learning during the training phase” value is reported as “improved”. Further, the “memory on the probe day” value in data set [4] was “improved”. Moreover, the “clinical observations, gross and microscopic examinations of the GI tract” value in data set [5] (40 mg/kg oral gavage daily for 2 weeks, young and aged mice) is listed as “unremarkable”. The “genes differentially expressed on treatment” value is on record as 1162 genes in data set [5] (ileum, aged mice); 80 genes in data set [5] (ileum, young mice); 382 genes in data set [5] (jejunum, aged mice); 42 genes in data set [5] (jejunum, young mice). Also, the “genes whose expression changed significantly in response to exposure” value in data set [5] (jejunum and ileum, both young and aged mice) is recorded as “no more than 2 genes”. Also, the “genes down-regulated in ageing that are up-regulated by treatment in old mice” value in data set [5] (stomach) was 37 genes and 36 genes. The “genes differentially expressed on treatment (p(adj)<0.05)” value in data set [5] (stomach, aged mice) was determined as 63 genes; in data set [5] (stomach, young mice (20 weeks)), 13 genes. The “ageing genes further down regulated in the ageing direction by treatment” value in data set [5] (stomach, young mice) came to 12 genes.

Source of the values: patent US20250228873A1, “C25 R AND S ISOMERS OF AMINOSTEROLS AND METHODS OF MAKING AND USING THE SAME” (Enterin, Inc., priority 2022, published 2025).
